Common to all, as to type: biochemical
For assay [1], the target named is T1, Human Tyk2 kinase domain (Homo sapiens, UniProt P29597).
T1 construct: comprising amino acids 886 to 1187; His10 (10 histidine residues) (C, cleaved yes); made in house
T1 sequence (P29597 886-1187): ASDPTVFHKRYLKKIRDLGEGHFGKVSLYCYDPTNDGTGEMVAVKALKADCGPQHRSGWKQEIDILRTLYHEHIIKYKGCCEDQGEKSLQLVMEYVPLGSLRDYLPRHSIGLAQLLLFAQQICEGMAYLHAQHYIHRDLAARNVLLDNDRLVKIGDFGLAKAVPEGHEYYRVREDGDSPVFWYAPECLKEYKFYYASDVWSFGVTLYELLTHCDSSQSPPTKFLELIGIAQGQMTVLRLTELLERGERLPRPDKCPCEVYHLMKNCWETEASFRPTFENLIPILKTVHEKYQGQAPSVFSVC
Kind of assay: Tyk2 Inhibition Assay (Omnia kinase fluorescence peptide substrate). Particulars: averaged IC50 ranges; 10 μM (Km app) or 1 mM ATP, 2 nM Tyk2. In a few lines: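 Phosphorylation of 8 μM Omnia Y12 peptide followed kinetically by Sox fluorescence, ex 360/em 485 nm, every 50 s for 45 min. Enzyme: 2 nM Tyk2 kinase domain (aa 886–1187, His tag removed); ATP at 10 μM (Km app) or 1 mM; buffer HEPES pH 7.4 with MgCl2, Triton X-100, DTT. 10-point curves up to 10 μM, IC50 from 4-parameter logistic fit.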

Assay [2] concerns the target T2, JAK1 (Homo sapiens, UniProt P23458).
T2 construct: purchased Invitrogen Corporation, Carlsbad, Calif; IVGN PV4775
Kind of assay: JAK1 Inhibition Assay (Omnia kinase fluorescence peptide substrate). As to conditions: averaged IC50 ranges; 40 μM (Km app) or 1 mM ATP, 15 nM JAK1. In a few lines:
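15 nM JAK1, 8 μM Omnia Y12 peptide, 40 μM (Km app) or 1 mM ATP; 25 mM HEPES pH 7.4, 10 mM MgCl2, 2% DMSO. Fluorescence (ex 360/em 485 nm) read every 50 s over 45 min. IC50 by 4-parameter fit of percent of control, top dose 10 μM.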

Assay [3] concerns the target T3, JAK2 (Homo sapiens, UniProt O60674).
T3 construct: purchased Invitrogen Corporation, Carlsbad, Calif; IVGN PV4288
Kind of assay: JAK2 Inhibition Assay (Omnia kinase fluorescence peptide substrate). Particulars: averaged IC50 ranges; 25 μM (Km app) or 1 mM ATP, 5 nM JAK2.

The target of assay [4] is T4, JAK3 (Homo sapiens, UniProt P52333).
T4 construct: purchased Invitrogen Corporation, Carlsbad, Calif; IVGN PV4080
T4 sequence (P52333 1-1124): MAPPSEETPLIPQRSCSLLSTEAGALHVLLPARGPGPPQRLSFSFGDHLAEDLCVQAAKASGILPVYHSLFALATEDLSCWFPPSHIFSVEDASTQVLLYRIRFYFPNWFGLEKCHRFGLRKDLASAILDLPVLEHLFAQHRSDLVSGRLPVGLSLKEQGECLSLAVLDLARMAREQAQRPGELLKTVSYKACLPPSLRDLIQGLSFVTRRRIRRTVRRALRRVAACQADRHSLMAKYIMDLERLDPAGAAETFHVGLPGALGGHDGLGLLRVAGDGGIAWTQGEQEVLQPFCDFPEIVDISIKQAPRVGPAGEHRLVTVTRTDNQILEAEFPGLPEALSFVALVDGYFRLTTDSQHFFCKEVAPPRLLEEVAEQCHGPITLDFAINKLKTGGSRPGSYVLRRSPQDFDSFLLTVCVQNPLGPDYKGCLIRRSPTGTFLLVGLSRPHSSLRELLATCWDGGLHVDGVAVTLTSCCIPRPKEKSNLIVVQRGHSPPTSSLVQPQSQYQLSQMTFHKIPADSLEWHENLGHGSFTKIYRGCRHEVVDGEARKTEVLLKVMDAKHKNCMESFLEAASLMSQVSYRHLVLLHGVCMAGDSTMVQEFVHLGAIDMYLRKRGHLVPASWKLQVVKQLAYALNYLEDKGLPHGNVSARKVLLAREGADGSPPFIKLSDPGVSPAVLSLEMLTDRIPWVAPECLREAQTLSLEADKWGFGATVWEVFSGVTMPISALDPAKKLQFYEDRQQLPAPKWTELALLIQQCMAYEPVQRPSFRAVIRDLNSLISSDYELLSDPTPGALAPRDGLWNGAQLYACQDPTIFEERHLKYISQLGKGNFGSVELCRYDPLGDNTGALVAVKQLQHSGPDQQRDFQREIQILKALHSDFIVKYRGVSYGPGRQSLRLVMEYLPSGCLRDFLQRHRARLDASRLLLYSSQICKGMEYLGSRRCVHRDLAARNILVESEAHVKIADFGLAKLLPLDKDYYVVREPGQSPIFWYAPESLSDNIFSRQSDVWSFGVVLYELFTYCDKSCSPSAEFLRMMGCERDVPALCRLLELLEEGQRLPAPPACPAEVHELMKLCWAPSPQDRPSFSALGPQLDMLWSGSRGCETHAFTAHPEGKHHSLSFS
Kind of assay: JAK3 Inhibition Assay (Omnia kinase fluorescence peptide substrate). As to conditions: averaged IC50 ranges; 10 μM (Km app) or 1 mM ATP, 2.5 nM JAK3. In a few lines:
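IC50 is the concentration giving 50 percent of control on a 4-parameter logistic fit of 10-point, 3-fold dilutions from a 10 μM top dose, at 2% final DMSO. Kinetic Sox fluorescence (360/485 nm) was monitored every 50 s for 45 min. Mix: JAK3 2.5 nM, Omnia Y7 peptide 10 μM, ATP 10 μM (Km app) or 1 mM, in HEPES pH 7.4 buffer with MgCl2, Triton X-100 and DTT.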

T2 sequence (P23458 whole entry): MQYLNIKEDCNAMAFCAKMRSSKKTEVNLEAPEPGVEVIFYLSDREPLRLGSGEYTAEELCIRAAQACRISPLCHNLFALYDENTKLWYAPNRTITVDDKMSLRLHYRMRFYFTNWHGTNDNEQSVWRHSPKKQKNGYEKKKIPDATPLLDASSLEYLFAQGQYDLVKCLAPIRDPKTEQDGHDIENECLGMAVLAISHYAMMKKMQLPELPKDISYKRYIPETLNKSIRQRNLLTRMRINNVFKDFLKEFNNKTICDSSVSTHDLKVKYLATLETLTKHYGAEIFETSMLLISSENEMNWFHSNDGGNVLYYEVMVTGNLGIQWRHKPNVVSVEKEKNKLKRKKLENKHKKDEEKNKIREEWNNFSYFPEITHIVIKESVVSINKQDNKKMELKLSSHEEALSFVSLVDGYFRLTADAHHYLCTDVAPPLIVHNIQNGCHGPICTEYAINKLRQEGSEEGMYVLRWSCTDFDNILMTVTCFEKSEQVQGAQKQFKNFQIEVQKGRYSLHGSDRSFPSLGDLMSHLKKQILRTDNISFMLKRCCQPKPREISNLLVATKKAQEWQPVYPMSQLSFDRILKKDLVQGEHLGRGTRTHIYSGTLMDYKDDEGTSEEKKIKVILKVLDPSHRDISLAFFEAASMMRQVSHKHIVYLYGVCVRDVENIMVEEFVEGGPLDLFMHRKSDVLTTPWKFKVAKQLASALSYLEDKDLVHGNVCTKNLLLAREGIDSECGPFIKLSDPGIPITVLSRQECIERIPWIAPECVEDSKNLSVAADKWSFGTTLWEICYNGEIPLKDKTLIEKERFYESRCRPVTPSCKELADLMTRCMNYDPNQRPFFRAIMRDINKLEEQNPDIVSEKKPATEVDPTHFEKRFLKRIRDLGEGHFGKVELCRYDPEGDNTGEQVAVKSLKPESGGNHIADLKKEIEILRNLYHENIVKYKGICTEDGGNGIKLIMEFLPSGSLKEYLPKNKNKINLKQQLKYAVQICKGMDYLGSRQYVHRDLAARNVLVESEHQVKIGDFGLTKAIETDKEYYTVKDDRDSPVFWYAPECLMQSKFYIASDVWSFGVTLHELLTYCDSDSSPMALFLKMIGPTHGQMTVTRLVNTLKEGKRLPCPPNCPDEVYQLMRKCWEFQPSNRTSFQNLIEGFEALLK
T3 sequence (O60674 whole entry): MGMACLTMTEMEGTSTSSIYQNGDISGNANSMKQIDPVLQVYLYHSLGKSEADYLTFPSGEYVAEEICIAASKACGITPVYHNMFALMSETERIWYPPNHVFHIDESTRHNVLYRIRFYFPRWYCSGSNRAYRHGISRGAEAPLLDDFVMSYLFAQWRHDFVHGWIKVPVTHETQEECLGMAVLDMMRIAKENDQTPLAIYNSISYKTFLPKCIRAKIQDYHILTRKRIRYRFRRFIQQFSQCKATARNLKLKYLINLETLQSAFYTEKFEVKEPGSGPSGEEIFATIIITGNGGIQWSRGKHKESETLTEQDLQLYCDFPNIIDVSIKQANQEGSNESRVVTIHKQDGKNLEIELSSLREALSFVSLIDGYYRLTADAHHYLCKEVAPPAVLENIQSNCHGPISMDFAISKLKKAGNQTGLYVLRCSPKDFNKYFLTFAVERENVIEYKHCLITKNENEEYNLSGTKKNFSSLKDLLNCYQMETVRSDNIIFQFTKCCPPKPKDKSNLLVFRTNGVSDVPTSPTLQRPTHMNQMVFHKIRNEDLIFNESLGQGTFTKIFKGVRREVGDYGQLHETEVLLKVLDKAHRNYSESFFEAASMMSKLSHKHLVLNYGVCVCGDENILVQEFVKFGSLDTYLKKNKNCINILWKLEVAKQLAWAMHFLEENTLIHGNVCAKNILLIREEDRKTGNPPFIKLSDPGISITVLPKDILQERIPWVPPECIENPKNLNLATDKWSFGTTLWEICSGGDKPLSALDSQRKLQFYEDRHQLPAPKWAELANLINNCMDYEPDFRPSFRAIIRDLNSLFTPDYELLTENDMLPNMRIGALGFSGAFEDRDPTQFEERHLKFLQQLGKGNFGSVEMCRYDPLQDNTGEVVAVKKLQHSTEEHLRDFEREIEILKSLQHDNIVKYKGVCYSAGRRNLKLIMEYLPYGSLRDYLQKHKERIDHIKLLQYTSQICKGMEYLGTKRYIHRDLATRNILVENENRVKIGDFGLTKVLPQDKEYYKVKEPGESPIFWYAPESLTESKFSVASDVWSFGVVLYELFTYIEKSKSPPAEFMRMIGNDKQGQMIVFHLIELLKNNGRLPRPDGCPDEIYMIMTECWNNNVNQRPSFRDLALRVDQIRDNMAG

As usually defined, the IC50 is the midpoint of a concentration-inhibition curve. Read a low IC50 as higher potency. As to `Cn1cc(-c2cc3nccn3c(-c3cnn(C(CCO)c4ccc(F)cc4)c3)n2)cn1` (stereo not shown) [Example 81, 3-(4-fluorophenyl)-3-(4-(7-(1-methyl-1H-pyrazol-4-yl)imidazo[1,2-c]pyrimidin-5-yl)-1H-pyrazol-1-yl)propan-1-ol], the IC50 in assay [1], in assay [2], in assay [3] and in assay [4] was 100 to 1000 nM each time.
On to `COCCC(c1ccc(F)cc1)n1cc(-c2nc(-c3cnn(C)c3)cc3nccn23)cn1` (stereo not shown) [Example 82, 5-(1-(1-(4-fluorophenyl)-3-methoxypropyl)-1H-pyrazol-4-yl)-7-(1-methyl-1H-pyrazol-4-yl)imidazo[1,2-c]pyrimidine], for which the IC50 in assay [1], in assay [2], in assay [3] and in assay [4] was 100 to 1000 nM in each case.
Consider `CCCCC1(n2cc(-c3nc(-c4cnn(C)c4)cc4nccn34)cn2)CN(S(=O)(=O)C(F)(F)F)C1` [Example 83, 5-(1-(3-butyl-1-((trifluoromethyl)sulfonyl)azetidin-3-yl)-1H-pyrazol-4-yl)-7-(1-methyl-1H-pyrazol-4-yl)imidazo[1,2-c]pyrimidine], for which the IC50 in assay [1] was 10 to 100 nM; in assay [2], 100 to 1000 nM; in assay [3] it was 100 to 1000 nM; in assay [4] it was 100 to 1000 nM.
`Cc1nn(C)cc1S(=O)(=O)N1CC(CCF)(n2cc(-c3nc(-c4cnn(C)c4)cc4nccn34)cn2)C1` [Example 85, 5-(1-(1-((1,3-dimethyl-1H-pyrazol-4-yl)sulfonyl)-3-(2-fluoroethyl)azetidin-3-yl)-1H-pyrazol-4-yl)-7-(1-methyl-1H-pyrazol-4-yl)imidazo[1,2-c]pyrimidine]: the IC50 in assay [1] was 100 to 1000 nM; in assay [2], 100 to 1000 nM; in assay [3], 100 to 1000 nM; in assay [4], more than 1000 nM.
With `Cn1cc(-c2cc3nccn3c(-c3cnn(C4(CCF)CN(S(=O)(=O)CC(F)(F)F)C4)c3)n2)cn1` [Example 86, 5-(1-(3-(2-fluoroethyl)-1-((2,2,2-trifluoroethyl)sulfonyl)azetidin-3-yl)-1H-pyrazol-4-yl)-7-(1-methyl-1H-pyrazol-4-yl)imidazo[1,2-c]pyrimidine], the IC50 is 100 to 1000 nM in assay [1], more than 1000 nM in assay [2], 100 to 1000 nM in assay [3] and more than 1000 nM in assay [4].
Turning to `Cn1cc(-c2cc3nccn3c(-c3cnn(C4(CCF)CN(S(=O)(=O)CC5CC5)C4)c3)n2)cn1` [Example 87, 5-(1-(1-((cyclopropylmethyl)sulfonyl)-3-(2-fluoroethyl)azetidin-3-yl)-1H-pyrazol-4-yl)-7-(1-methyl-1H-pyrazol-4-yl)imidazo[1,2-c]pyrimidine], the IC50 in assay [1], in assay [2], in assay [3] and in assay [4] was 100 to 1000 nM in each case.
With `CCCC1(n2cc(-c3nc(-c4cnn(C)c4)cc4nccn34)cn2)CN(S(=O)(=O)C(F)(F)F)C1` [Example 88, 7-(1-methyl-1H-pyrazol-4-yl)-5-(1-(3-propyl-1-((trifluoromethyl)sulfonyl)azetidin-3-yl)-1H-pyrazol-4-yl)imidazo[1,2-c]pyrimidine], the IC50 in assay [1] lay within 10 to 100 nM; in assay [2] it was 100 to 1000 nM; in assay [3] it was 10 to 100 nM; in assay [4], 100 to 1000 nM.
Consider `COCCn1cc(-c2cc3nccn3c(-c3cnn(C4(CCF)CN(S(=O)(=O)C(F)(F)F)C4)c3)n2)cn1` [Example 89, 5-(1-(3-(2-fluoroethyl)-1-((trifluoromethyl)sulfonyl)azetidin-3-yl)-1H-pyrazol-4-yl)-7-(1-(2-methoxyethyl)-1H-pyrazol-4-yl)imidazo[1,2-c]pyrimidine], for which the IC50 in assay [1] is less than 10 nM; in assay [2], 10 to 100 nM; in assay [3] it was 10 to 100 nM; in assay [4], 100 to 1000 nM.
As for `CC=CCC1(n2cc(-c3nc(-c4cnn(C)c4)cc4nccn34)cn2)CN(S(=O)(=O)C(F)(F)F)C1` [Example 90, 5-(1-(3-(but-2-en-1-yl)-1-((trifluoromethyl)sulfonyl)azetidin-3-yl)-1H-pyrazol-4-yl)-7-(1-methyl-1H-pyrazol-4-yl)imidazo[1,2-c]pyrimidine], the IC50 in assay [1], in assay [2], in assay [3] and in assay [4] was 10 to 100 nM each time.
Take `C=CCC1(n2cc(-c3nc(-c4cnn(C)c4)cc4nccn34)cn2)CN(S(=O)(=O)C(F)(F)F)C1` [Example 91, 5-(1-(3-allyl-1-((trifluoromethyl)sulfonyl)azetidin-3-yl)-1H-pyrazol-4-yl)-7-(1-methyl-1H-pyrazol-4-yl)imidazo[1,2-c]pyrimidine]: the IC50 is less than 10 nM in assay [1], 10 to 100 nM in assay [2], 10 to 100 nM in assay [3] and 100 to 1000 nM in assay [4].
With `Cn1cc(-c2cc3nccn3c(-c3cnn(C4(CC(C)(C)O)CN(S(=O)(=O)C(F)(F)F)C4)c3)n2)cn1` [Example 94, 2-methyl-1-(3-(4-(7-(1-methyl-1H-pyrazol-4-yl)imidazo[1,2-c]pyrimidin-5-yl)-1H-pyrazol-1-yl)-1-((trifluoromethyl)sulfonyl)azetidin-3-yl)propan-2-ol], the 50% inhibitory concentration (IC50) in assay [1] is 100 to 1000 nM; in assay [2], 100 to 1000 nM; in assay [3] it was 100 to 1000 nM; in assay [4], more than 1000 nM.
In the case of `CC(C)S(=O)(=O)N1CC(CCF)(n2cc(-c3nc(-c4cnn(C)c4)cc4nccn34)cn2)C1` [Example 95, 5-(1-(3-(2-fluoroethyl)-1-(isopropylsulfonyl)azetidin-3-yl)-1H-pyrazol-4-yl)-7-(1-methyl-1H-pyrazol-4-yl)imidazo[1,2-c]pyrimidine], the IC50 was 100 to 1000 nM in assay [1], more than 1000 nM in assay [2], 100 to 1000 nM in assay [3] and more than 1000 nM in assay [4].
Take `CC(=O)N1CC(CCF)(n2cc(-c3nc(-c4cnn(C)c4)cc4nccn34)cn2)C1` [Example 96, 1-(3-(2-fluoroethyl)-3-(4-(7-(1-methyl-1H-pyrazol-4-yl)imidazo[1,2-c]pyrimidin-5-yl)-1H-pyrazol-1-yl)azetidin-1-yl)ethanone]: the IC50 in assay [1], in assay [2], in assay [3] and in assay [4] was more than 1000 nM in each case.

(Values after US20140228349A1, “5,7-SUBSTITUTED-IMIDAZO[1,2-C]PYRIMIDINES” (Array BioPharma Inc., priority 2011, published 2014).)
